The text below walks through data of patent US20220409598A1, “METHOD OF CONTROLLING BLOOD SUGAR LEVEL AND TREATMENT OF DIABETES AND RELATED CONDITIONS” (ILDONG PHARMACEUTICAL CO., LTD., priority 2021, published 2022).

Read-outs that look alike come from different tables or passages of the source.

For series [1] the following is noted: diabetics, metformin on its own; cited from earlier work.
Series [2] concerns the target BSEP (bile salt export pump) (Homo sapiens, UniProt O95342). The series can be described thus: Human transporter inhibition study, BSEP. Type of series: biochemical. The note with it: in vitro inhibition; read-out: BSEP IC50. The text has this:
DILI risk may be due to potency of BSEP inhibition in combination with in vivo drug exposure (e.g., Cmax or Css (plasma concentration at steady state)).
(§1) • (a) Human Transporter Inhibition Study and Safety Margin

The target in series [3] is MRP2 (Homo sapiens, UniProt Q92887). The experiment in a line: Human transporter inhibition study, MRP2. Type of series: biochemical. The settings on record: read-out: MRP2 in vitro inhibition IC50.
Sequence of MRP2 (Q92887 whole entry): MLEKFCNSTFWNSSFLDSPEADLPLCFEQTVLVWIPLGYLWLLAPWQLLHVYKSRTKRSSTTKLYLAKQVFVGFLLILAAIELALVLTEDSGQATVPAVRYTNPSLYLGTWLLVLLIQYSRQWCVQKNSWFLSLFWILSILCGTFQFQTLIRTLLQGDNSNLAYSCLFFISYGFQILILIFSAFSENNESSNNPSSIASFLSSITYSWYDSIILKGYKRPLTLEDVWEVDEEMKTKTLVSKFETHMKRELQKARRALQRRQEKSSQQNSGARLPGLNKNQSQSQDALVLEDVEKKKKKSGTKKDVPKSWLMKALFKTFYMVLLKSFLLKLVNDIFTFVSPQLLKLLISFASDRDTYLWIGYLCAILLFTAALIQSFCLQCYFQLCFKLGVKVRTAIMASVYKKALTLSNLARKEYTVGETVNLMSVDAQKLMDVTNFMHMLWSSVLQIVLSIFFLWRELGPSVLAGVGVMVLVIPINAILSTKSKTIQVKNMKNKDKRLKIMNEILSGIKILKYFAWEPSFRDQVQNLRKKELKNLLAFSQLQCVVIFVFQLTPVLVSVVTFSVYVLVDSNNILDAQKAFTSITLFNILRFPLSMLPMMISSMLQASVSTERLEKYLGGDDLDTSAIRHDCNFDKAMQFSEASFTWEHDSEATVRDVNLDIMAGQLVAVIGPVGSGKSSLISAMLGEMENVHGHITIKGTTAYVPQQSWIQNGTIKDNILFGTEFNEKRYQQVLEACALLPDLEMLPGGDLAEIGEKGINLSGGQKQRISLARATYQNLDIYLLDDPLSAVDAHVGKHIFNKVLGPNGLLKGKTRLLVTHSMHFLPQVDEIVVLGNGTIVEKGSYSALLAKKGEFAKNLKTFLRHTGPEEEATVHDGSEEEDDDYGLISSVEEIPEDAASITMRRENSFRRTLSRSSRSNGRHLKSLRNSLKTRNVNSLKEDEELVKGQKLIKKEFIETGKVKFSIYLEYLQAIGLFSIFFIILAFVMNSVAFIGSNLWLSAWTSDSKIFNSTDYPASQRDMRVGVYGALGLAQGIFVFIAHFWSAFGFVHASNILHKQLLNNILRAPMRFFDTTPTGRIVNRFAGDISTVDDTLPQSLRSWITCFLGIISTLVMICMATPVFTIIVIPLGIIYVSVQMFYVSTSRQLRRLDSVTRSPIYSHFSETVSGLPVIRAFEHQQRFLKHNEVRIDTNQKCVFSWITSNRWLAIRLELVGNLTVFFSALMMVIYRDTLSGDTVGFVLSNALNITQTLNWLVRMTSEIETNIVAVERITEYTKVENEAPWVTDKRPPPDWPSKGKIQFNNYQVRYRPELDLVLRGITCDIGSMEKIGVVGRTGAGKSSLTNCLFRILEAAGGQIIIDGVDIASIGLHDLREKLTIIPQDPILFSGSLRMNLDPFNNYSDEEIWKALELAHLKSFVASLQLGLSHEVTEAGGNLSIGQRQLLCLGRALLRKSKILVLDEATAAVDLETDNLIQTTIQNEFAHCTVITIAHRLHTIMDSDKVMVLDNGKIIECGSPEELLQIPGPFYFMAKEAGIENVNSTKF
From the text: as §1

Series [4] deals with MRP3 (Homo sapiens, UniProt O15438). The series can be described thus: Human transporter inhibition study, MRP3. The note with it: read-out: MRP3 in vitro inhibition IC50. Type of series: biochemical.
Sequence of MRP3 (O15438 whole entry): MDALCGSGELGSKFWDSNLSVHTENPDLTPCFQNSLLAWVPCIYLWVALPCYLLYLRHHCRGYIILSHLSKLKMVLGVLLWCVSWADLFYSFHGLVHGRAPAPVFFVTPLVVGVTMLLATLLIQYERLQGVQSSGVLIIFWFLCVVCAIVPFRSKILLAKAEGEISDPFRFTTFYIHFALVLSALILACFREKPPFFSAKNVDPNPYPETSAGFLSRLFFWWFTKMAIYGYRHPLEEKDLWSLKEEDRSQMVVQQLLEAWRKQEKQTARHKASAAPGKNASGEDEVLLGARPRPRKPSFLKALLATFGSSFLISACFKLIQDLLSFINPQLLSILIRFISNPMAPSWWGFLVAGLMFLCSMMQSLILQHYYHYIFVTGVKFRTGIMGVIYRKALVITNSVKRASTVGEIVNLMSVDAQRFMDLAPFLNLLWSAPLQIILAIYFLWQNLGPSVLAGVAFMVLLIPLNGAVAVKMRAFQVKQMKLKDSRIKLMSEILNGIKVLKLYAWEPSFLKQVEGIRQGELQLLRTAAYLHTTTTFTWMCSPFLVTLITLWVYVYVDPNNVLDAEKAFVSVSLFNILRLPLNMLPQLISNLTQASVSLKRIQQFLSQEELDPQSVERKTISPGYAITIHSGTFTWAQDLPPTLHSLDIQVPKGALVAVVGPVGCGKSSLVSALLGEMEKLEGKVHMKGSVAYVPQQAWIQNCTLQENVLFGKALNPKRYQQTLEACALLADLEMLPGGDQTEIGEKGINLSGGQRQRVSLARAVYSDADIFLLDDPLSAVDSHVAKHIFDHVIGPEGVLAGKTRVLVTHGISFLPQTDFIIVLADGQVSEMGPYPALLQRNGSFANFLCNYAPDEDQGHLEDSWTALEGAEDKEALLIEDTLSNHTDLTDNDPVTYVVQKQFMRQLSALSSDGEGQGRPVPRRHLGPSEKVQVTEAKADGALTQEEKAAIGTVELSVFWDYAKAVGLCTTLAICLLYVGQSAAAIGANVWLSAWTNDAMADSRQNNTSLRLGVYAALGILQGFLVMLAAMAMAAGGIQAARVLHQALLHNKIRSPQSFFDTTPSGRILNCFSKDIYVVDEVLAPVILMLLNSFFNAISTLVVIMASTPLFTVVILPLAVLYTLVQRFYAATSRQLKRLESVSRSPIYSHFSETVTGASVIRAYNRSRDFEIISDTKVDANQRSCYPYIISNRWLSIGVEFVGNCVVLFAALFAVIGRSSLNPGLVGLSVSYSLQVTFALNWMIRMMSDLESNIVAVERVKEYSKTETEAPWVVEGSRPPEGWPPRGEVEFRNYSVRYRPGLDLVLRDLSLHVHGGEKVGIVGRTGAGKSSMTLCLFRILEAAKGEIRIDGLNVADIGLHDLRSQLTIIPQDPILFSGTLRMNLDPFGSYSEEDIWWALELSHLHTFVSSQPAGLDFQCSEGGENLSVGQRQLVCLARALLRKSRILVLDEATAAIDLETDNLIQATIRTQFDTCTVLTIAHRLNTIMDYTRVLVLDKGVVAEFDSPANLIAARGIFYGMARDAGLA
From the text: as §1

Series [5] deals with T1, MRP4 (Homo sapiens, UniProt O15439).
T1 sequence (O15439 1-1325): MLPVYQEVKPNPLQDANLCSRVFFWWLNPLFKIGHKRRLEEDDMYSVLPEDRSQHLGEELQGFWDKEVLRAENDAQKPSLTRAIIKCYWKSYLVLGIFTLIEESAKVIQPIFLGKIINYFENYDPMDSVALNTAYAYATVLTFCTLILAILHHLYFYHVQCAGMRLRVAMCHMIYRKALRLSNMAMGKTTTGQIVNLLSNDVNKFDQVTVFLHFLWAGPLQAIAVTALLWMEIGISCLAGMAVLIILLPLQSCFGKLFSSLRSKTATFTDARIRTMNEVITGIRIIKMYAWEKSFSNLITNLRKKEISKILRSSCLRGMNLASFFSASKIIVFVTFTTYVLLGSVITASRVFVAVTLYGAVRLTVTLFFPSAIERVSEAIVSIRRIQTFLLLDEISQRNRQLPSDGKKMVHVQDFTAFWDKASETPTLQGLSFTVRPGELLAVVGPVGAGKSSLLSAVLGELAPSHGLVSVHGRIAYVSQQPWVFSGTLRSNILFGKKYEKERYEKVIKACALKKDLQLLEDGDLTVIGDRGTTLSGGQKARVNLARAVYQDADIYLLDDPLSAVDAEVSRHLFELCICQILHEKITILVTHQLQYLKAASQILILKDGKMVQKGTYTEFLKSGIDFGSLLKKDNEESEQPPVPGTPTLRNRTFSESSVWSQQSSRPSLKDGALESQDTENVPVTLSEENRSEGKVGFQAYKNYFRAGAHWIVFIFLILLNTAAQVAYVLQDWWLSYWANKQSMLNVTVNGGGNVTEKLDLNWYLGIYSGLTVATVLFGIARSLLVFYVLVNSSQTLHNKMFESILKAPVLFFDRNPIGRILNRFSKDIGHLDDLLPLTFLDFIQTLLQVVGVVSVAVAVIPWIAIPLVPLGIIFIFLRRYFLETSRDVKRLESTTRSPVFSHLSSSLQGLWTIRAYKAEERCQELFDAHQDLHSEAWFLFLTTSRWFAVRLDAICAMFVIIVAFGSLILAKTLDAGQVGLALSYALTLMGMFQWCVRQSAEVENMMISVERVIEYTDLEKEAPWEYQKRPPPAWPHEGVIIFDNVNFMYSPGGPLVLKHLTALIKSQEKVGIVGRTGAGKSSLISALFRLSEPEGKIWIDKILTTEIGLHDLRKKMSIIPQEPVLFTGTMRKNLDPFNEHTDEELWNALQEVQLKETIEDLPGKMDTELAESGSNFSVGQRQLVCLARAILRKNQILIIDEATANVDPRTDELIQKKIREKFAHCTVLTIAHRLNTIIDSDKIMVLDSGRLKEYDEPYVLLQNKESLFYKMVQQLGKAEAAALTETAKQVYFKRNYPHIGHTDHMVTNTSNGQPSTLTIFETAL
The series can be described thus: Human transporter inhibition study, MRP4. The note with it: read-out: MRP4 in vitro inhibition IC50. The class given is biochemical.
From the text: as §1

Series [6] relates to glycocholic acid (GCA) accumulation. The series can be described thus: Bile acid analysis, glycocholic acid (GCA) accumulation. Type of series: cell-based. The settings on record: at 4 μM. The text has this:
Glycocholic acid (GCA) and glycochenodeoxycholic acid (GCDCA) are major components of human bile acids and their significant increase has been confirmed in DILI patients.

Series [7] can be described thus: HμRELTox assay, hepatotoxic response. The settings on record: read-out: TC50 (the source's name). Type of series: cell-based.
Series [8] relates to PPAR. The experiment in a line: Transcription factor profiling in 2D HepG2 cell, PPAR. The note with it: 10 μM for 24 hours. Type of series: cell-based.
Series [9] deals with AP-1. The experiment in a line: Transcription factor profiling in 2D HepG2 cell, AP-1. The class given is cell-based. The note with it: 10 μM for 24 hours.
In series [10] the test system is NRF2. The series can be described thus: Transcription factor profiling in 2D HepG2 cell, NRF2. The class given is cell-based. The note with it: 10 μM for 24 hours.
The conditions of series [11]: cited from earlier work; for Cmax: fasiglifam, Clin. Pharmacol. Ther. 92, 29-39, read-out: Human Cmax (maximum plasma concentration at steady state); for Cpss, max: human.
In series [12] the test system is human hepatocytes. The settings on record: Otieno et al. 2018, cited from earlier work.

Sequence of BSEP (bile salt export pump) (O95342 whole entry): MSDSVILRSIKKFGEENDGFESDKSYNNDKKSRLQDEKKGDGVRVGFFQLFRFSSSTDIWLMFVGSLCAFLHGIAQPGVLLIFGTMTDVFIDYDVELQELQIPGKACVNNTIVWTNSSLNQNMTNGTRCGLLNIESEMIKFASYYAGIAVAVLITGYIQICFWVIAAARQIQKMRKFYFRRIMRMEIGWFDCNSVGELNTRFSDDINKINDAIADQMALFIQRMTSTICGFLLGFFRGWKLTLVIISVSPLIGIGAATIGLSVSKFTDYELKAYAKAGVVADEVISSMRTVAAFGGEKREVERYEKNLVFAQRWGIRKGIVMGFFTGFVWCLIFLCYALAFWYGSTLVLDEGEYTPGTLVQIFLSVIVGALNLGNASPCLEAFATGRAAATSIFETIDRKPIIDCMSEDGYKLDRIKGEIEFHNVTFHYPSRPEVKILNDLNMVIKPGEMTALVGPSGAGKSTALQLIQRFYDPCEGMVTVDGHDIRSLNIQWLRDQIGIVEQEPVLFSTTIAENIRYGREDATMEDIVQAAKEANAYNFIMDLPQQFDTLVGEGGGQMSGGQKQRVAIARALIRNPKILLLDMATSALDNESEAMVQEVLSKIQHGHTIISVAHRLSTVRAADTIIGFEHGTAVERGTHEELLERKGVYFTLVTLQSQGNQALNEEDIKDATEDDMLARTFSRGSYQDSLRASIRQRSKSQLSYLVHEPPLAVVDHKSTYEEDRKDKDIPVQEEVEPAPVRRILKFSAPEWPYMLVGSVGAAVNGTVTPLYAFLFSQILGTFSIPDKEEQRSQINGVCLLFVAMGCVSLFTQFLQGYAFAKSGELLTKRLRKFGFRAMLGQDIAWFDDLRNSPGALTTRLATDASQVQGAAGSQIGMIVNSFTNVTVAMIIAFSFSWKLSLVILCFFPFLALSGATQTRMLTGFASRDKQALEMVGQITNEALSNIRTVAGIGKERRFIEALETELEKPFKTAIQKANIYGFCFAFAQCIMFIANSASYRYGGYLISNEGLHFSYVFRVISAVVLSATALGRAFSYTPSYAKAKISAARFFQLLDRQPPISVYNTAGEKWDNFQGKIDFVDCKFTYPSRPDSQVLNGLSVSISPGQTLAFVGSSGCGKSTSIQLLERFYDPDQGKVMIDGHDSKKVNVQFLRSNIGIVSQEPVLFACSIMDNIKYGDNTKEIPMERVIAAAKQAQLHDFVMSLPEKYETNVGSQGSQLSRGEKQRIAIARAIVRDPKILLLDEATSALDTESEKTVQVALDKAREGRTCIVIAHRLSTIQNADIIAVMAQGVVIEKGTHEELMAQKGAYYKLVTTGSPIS

For `CN(C)C(=N)N=C(N)N` [metformin], the “Average improvement in the HbA1c value” in [1] was 1.0-1.5%.
Usually IC50 stands for the midpoint of a concentration-inhibition curve. As to `Cc1cc(OCCCS(C)(=O)=O)cc(C)c1-c1cccc(COc2ccc3c(c2)OC[C@H]3CC(=O)O)c1` [fasiglifam], the IC50 in series [2] stood at 19.6 µM; in series [3] it was 24.8 µM; in series [4] it was 14.2 µM; in series [5] it was 11.1 µM. Also, the “Accumulation of glycocholic acid (GCA)” value in [6] was “significant accumulation”. Further, the CC50 in series [7] is 88.4 µM. The “Activity of PPAR” value in series [8] is listed as “significantly increased”. In series [9], the “Activity of AP-1” value is recorded as “significantly increased”. The “Activity of NRF2” value in series [10] is on record as “significantly increased”. Also, the Cmax in series [11] (listed as Fasiglifam) is 10 µM; in series [11], 10.1 µM. The “Cpss, max” value in series [11] (dose 25 mg) is 4.38 µM; in [11] (dose 50 mg), 10.10 µM. Moreover, the “CVB Burden” value in series [12] (daily dose 50 mg) was 2 mg/day. Moreover, in series [12] (human hepatocytes, compound alone), the “Covalent binding (CVB), compound” value is given as 69.1 pmol/mg protein. The “Covalent binding (CVB), +Aminobenzotriazole (CYP inhibitor)” value in [12] (human hepatocytes) is listed as 73.7 pmol/mg protein. The “Covalent binding (CVB), +Borneol (UGT inhibitor)” value in series [12] (human hepatocytes) is listed as 44.4 pmol/mg protein.
